A short description of series [1]: retentivity in blood of Dex-CHEMS / Dex-Pal emulsions (HPLC of plasma). The arrangement: species or system ICR mouse. Particulars: mouse, in vivo, iv. Here is the method:
When the lipid composition was 3 mM B-2/DOPC/Chol=3/4/3+10 mol % Dex-CHEMS+10 mol % DMG-PEG2000+10 mol % DSG-PEG2000 (1000 μL), a lipid solution was mixed in vitro as follows.
The solvent was evaporated once and the residue was redissolved in 100 μL CHCl3. N2 gas was blown to form a lipid thin film on the wall of a test tube. After a few hours of a vacuum treatment by a desiccator, 20 mM Maric acid buffer (30 mM NaCl, pH 3.0, 1000 μL) was added, and the mixture was incubated for 10 min at room temperature. After sonication with a bath-type sonicator for 30 sec, the mixture was sonicated by a probe-type sonicator for 5 min (output power: 30%). After centrifugation at 4° C., 15000 g for 5 min, the supernatant was collected. Neutralization was performed by adding an equal amount of 36 mM NaOH/PBS.
An emulsion composed of Dex-CHEMS and B-2 was administered to ICR mouse (4 w ♂) at 25 μg Dex-CHEMS/mouse. […]
Plasma (16.5 μL) centrifuged at 4° C., 1000 g for 10 min was transferred to another 1.5 mL tube. […] Using HPLC, the peak area of Dex-CHEMS and the peak area of 4 MU-Pal were calculated. The peak area of 0.5, 0.25, 0.125, 0.0625 nmol Dex-CHEMS was calculated by a similar method using HPLC and used as an analytical curve. […]
The residual rate in blood at 1 hr later was calculated with that 1 min after the administration as 100%.

The nature of series [2]: influence of concentration of PEG lipid on retentivity in blood. Type of series: in vivo. As to conditions: B-2/DOPC/Chol=3/4/3, 10 mol % DMG-PEG2000, 3-9 mol % DSG-PEG2000, 10 mol % Dex-CHEMS; mouse tail vein; almost equal for 6 and 9 mol %. Here is the method:
An emulsion having a composition of B-2/DOPC/Chol=3/4/3+10 mol % DMG-PEG2000+3-9 mol % DSG-PEG2000+10 mol % Dex-CHEMS was prepared in the same manner as in Example 1. An emulsion having each PEG amount was administered from the mouse tail vein, plasma was collected 1 min, 1 hr, 6 hr and 24 hr later, extracted with an organic solvent, and Dex-CHEMS concentration was calculated by HPLC. Along with an increase in DSG-PEG2000, the retentivity in blood was improved to become almost equal for DSG-PEG2000 6 mol % and 9 mol %.

As for `CC(C)CCC[C@@H](C)[C@H]1CC[C@H]2C3CC=C4C[C@@H](OC(=O)CCC(=O)OCC(=O)[C@]5(O)[C@@H](C)C[C@@H]6[C@H]7CCC8=CC(=O)C=C[C@@]8(C)[C@]7(F)C(O)C[C@]65C)CC[C@]4(C)[C@H]3CC[C@]12C` (some centres unmarked) [Dex-CHEMS, dexamethasone cholesterol hemisuccinate], the “residual in blood at 1 hr (1 min after administration as 100%)” value in series [1] was “continuously remained”. Moreover, the “retentivity in blood along with an increase in DSG-PEG2000” value in series [2] is reported as “improved”.

Values taken from patent publication US11395798B2, “O/W type emulsion” (NOF CORPORATION, priority 2015, dated 2022).
